In the experiment the target is OSBP (oxysterol-binding protein) (Homo sapiens, UniProt P22059). The experiment in a line: cell-based.

For one compound, EC50 results are on record in paper PMC4104544 (Cell, 2014).

Sequence of OSBP (oxysterol-binding protein) (P22059 2-807): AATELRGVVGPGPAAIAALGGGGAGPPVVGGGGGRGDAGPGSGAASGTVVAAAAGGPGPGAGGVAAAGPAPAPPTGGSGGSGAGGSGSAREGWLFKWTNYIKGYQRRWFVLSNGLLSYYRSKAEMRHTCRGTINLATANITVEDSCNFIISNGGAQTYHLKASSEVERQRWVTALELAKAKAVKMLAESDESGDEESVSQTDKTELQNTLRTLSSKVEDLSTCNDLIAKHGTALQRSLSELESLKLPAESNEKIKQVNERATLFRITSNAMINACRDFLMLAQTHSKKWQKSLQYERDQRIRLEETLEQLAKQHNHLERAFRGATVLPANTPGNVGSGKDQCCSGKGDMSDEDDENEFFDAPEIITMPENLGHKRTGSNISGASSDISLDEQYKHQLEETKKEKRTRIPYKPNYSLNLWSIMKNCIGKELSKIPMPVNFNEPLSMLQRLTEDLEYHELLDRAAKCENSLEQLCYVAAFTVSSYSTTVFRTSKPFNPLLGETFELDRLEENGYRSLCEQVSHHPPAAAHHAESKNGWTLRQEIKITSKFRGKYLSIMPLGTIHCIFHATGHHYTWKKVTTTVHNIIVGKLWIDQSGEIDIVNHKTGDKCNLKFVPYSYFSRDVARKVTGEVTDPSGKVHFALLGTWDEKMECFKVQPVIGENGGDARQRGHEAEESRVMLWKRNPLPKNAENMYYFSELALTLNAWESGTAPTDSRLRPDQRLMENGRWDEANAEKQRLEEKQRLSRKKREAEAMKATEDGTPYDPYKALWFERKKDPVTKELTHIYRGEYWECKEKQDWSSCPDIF
Sequence of OSBP (oxysterol-binding protein) (O75344 whole entry partner): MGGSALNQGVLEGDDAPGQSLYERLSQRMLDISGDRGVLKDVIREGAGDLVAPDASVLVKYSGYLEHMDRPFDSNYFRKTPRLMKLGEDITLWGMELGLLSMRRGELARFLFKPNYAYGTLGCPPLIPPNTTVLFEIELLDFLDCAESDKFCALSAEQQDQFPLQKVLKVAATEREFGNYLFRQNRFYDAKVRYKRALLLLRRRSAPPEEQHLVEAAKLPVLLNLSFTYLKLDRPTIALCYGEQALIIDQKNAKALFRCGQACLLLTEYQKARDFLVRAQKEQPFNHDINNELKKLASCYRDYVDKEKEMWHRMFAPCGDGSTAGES

As a reminder, the EC50 is the midpoint of the concentration-response curve. Lower therefore signals higher potency in that assay. Turning to `COc1ccc(C(=O)O[C@H]2[C@H](O[C@@H]3[C@@H](OC(C)=O)[C@H](O[C@H]4C[C@H]5[C@@H]6CC=C7C[C@@H](O)CC[C@]7(C)[C@H]6CC[C@]5(C)[C@@]4(O)[C@H](C)C(=O)CCC(C)C)OC[C@@H]3O)OC[C@@H](O)[C@@H]2O)cc1` [OSW-1], a half-maximal response (EC50) required 60 nM.
